# Marks after values point to notes of the source that are not given here.
# Experiments:
# Assay type in all cases: in vivo, mice (C57BL/6)
# [1] = tested on: diabetic nephrosis animal models; assay: Histopathological change (H&E) in liver, kidney, pancreas; settings: G3, 2 mg/kg oral; count in group of 10 animals
# Method: (§1) STZ (Sigma-aldrich, S0130, 40 mg/kg b.w., in 0.1 M citrate buffer pH 4.5) was intraperitoneally administered to 9-week-old male mice (C57BL/6) once/1 day for 5 days to perform a first disease induction. After 7 weeks of the first induction, a second induction was performed using the same method as the first induction. For 5 days of an STZ administration period for the first induction, 10% sucrose was administered as drinking water. In addition, after 14 days of the second administration, blood glucose levels were confirmed to confirm the induction rate, and the induced animals were separated into groups. Experimental substances (R)-4-{(R)-1-[7-(3,4,5-trimethoxy-phenyl)-[1,6] naphthyridin-5-yloxy]-ethyl}pyrrolidin-2-one (BI-1002494) and cromolyn (OC-101) were administered orally into the stomach at 10 mL/kg using an administration syringe (sonde) before 16:00 daily for 12 weeks at a frequency of 7 days/week at doses shown in Table 1 below, and dexamethasone was orally administered as a positive control substance.
# At the end of the observation period, the mice in each group of Example 1 were confirmed to be dead, and the liver, kidney, and pancreas were extracted and fixed with 10% neutral buffered formalin (NBF) in at least 20 times the tissue volume. The fixed tissue was sectioned to a thickness of approximately 4 mm and then produced into a paraffin block through general tissue processing and embedding processes. Thereafter, the tissue was sectioned to a thickness of 4 μm using a rotary microtome, and then H&E staining was performed, and histopathological changes were observed.
# [2] = Drinking water intake of mice in diabetic nephrosis model; parameters: unit not given here; settings: 2 mg/kg/day oral
# Method: as §1
# [3] = Feed intake of mice in diabetic nephrosis model; parameters: Feed intake, Mean: unit not given here; settings: 2 mg/kg/day oral
# Method: as §1
# [4] = tested on: diabetic nephrosis animal models; assay: Blood insulin (Mouse Insulin ELISA KIT) and HOMA-IR; settings: 2 mg/kg/day oral, after observation period, fasted
# Method: as §1
# (§2) After the observation period for mice of each group in Example 1 was terminated, all surviving animals were fasted in the same manner as when measuring blood glucose levels, and then anesthetized by inhaling isoflurane, and blood was collected from the abdominal vena cava through laparotomy. After the blood collection was completed, the veins and arteries were cut under anesthesia and exsanguinated. The collected blood was left at room temperature for 30 minutes or more and then centrifuged at 3,000 rpm for 20 minutes. Thereafter, glucose, Blood urea nitrogen (BUN), and creatinine were analyzed using an automated blood biochemistry analyzer (Hitachi 3100, Hitachi Co. Ltd., Japan). Indoxyl sulfate (a substance that was mainly produced in the intestines to cause renal injury, and a substance that caused end-stage renal failure by advancing renal function damage in patients with renal failure during hemodialysis) was analyzed using LC MS/MS. In addition, blood insulin was analyzed according to a method represented by a commercial Mouse Insulin ELISA KIT (#AKRIN-011T, Sibayagi Co. Ltd., Japan).
# [5] = Body weights of mice in diabetic nephrosis model; settings: 2 mg/kg/day oral
# Method: as §1
# [6] = tested on: diabetic nephrosis animal models; settings: 2 mg/kg/day oral, after observation period, fasted
# Method: as §1, §2
# [7] = tested on: diabetic nephrosis animal models; assay: Changes in blood glucose levels (tail vein, blood glucose level meter); settings: 2 mg/kg/day oral
# Method: as §1
# Before disease induction, excluding week 9 of administration of experimental substances to mice in each group of Example 1 above, after 2 weeks after the first induction (based on a first administration date), and after 6 weeks and 2 weeks of the second induction (based on the first administration date), blood was collected from the tail vein and blood glucose levels were measured using a blood glucose level meter (Accu-Check, Roche), and fasting was performed for 4 hours from 9:30 a.m. to 1:30.
# [8] = tested on: diabetic nephrosis animal models; assay: Blood indoxyl sulfate by LC MS/MS; settings: 2 mg/kg/day oral, after observation period, fasted
# Method: as §1, §2
structure (smiles),measurement,setting,value
"C[C@@H]1C[C@H]2[C@@H]3CCC4=CC(=O)C=C[C@]4(C)[C@@]3(F)[C@@H](O)C[C@]2(C)[C@@]1(O)C(=O)CO [Dexa, dexamethasone, reference compound]",Kidney: Medullar apoptosis,[1],1
same,Kidney: Medullar mineralization,[1],1
same,Kidney: NHL,[1],6
same,Kidney: bowman's capsule hyperplasia,[1],2
same,Kidney: pappillary mineralization,[1],0
same,Liver: Apoptosis,[1],4
same,Liver: Cytoplasmic glycogen,[1],0
same,Liver: Eosinophlic focus of cellular alteration,[1],3
same,Liver: Mononuclear cell infiltrate,[1],0
same,Liver: NHL,[1],5
same,Pancrease: Apoptosis,[1],0
same,Pancrease: NHL,[1],8
same,Pancrease: islet degeneration,[1],1
same,Pancrease: islet hypertrophy,[1],0
same,"Pancrease: islet, mononuclear cell infillitrate",[1],1
same,"Drinking water intake, Mean",[2]; week 0,7.07
same,"Drinking water intake, Mean",[2]; week 1,7.73
same,"Drinking water intake, Mean",[2]; week 2,7.06
same,"Drinking water intake, Mean",[2]; week 3,7.69
same,"Drinking water intake, Mean",[2]; week 4,7.69
same,"Drinking water intake, Mean",[2]; week 5,7.10
same,"Drinking water intake, Mean",[2]; week 6,7.35
same,"Drinking water intake, Mean",[2]; week 7,7.19
same,"Drinking water intake, Mean",[2]; week 8,7.83
same,"Drinking water intake, Mean",[2]; week 9,7.45
same,"Drinking water intake, Mean",[2]; week 10,7.19
same,"Feed intake, Mean",[3]; week 0,6.71
same,"Feed intake, Mean",[3]; week 1,5.48
same,"Feed intake, Mean",[3]; week 2,5.80
same,"Feed intake, Mean",[3]; week 3,5.84
same,"Feed intake, Mean",[3]; week 4,5.89
same,"Feed intake, Mean",[3]; week 5,5.65
same,"Feed intake, Mean",[3]; week 6,5.30
same,"Feed intake, Mean",[3]; week 7,5.56
same,"Feed intake, Mean",[3]; week 8,5.21
same,"Feed intake, Mean",[3]; week 9,5.29
same,"Feed intake, Mean",[3]; week 10,5.64
same,"HOMA-IR, Mean",[4],11.2^#
same,"Insulin, Mean",[4],0.6 ng/mL
same,"Body weight, Mean",[5]; week 0,24 g
same,"Body weight, Mean",[5]; week 1,23.5 g
same,"Body weight, Mean",[5]; week 2,23.6 g
same,"Body weight, Mean",[5]; week 3,23.6 g
same,"Body weight, Mean",[5]; week 4,23.6 g
same,"Body weight, Mean",[5]; week 5,23.7 g
same,"Body weight, Mean",[5]; week 6,23.6 g
same,"Body weight, Mean",[5]; week 7,23.8 g
same,"Body weight, Mean",[5]; week 8,23.6 g
same,"Body weight, Mean",[5]; week 10,23.3 g
same,"CRE, Mean",[6],0.1 mg/dL
same,"GLU, Mean",[6],335.6^# mg/dL
same,"T-CHO, Mean",[6],139.0 mg/dL
same,"Blood glucose level, Mean","[7]; week 0, 4 h fasting, in mg/dL (unit assumed)",307.1
same,"Blood glucose level, Mean","[7]; week 2, 4 h fasting, in mg/dL (unit assumed)",309.1
same,"Blood glucose level, Mean","[7]; week 4, 4 h fasting, in mg/dL (unit assumed)",329.2
same,"Blood glucose level, Mean","[7]; week 6, 4 h fasting, in mg/dL (unit assumed)",336.9
same,"Blood glucose level, Mean","[7]; week 8, 4 h fasting",286.1^#
same,"Blood glucose level, Mean","[7]; week 10, 4 h fasting, in mg/dL (unit assumed)",331.4
same,"Indoxyl sulfate, Mean",[8],2.5^# μg/mL
